Test results as given in ChEMBL document CHEMBL3864125, “Design, synthesis and evaluation of 4-dimethylamine flavonoid derivatives as potential multifunctional anti-Alzheimer agents” (Eur J Med Chem, 2016).
Calls of active or inactive are those of the source. The rule behind the calls is not given here.

Legend:
Acetylcholinesterase = Acetylcholinesterase (Electrophorus electricus, UniProt O42275)
Description: Inhibition of electric eel AChE using ATC as substrate preincubated for 15 mins followed by substrate addition by UV-spectrophotometric analysis

Cholinesterase = Cholinesterase (Equus caballus, UniProt P81908)
Description: Inhibition of horse serum BChE using BTC as substrate preincubated for 15 mins followed by substrate addition by UV-spectrophotometric analysis

PC-12 [1] = assay: Protective effect against H2O2-induced cell death in rat PC12 cells at 5 uM preincubated for 2 hrs followed by H2O2 addition for 24 hrs by MTT assay; assay type: functional, cell-based
PC-12 [2] = assay: Antioxidant activity in rat PC12 cells assessed as decrease of H2O2-induced ROS production at 2.5 uM preincubated for 2 hrs followed by H2O2 addition for 24 hrs by DCFH-DA /DAPI-based fluorescence assay; assay type: functional, cell-based
[3] = target: Acetylcholinesterase (Electrophorus electricus) (UniProt O42275); assay: Mixed-type inhibition of electric eel AChE using ATC as substrate at 1.25 to 5 uM preincubated for 15 mins followed by substrate addition by Lineweavere-Burk plot analysis
[4] = target: Cholinesterase (Equus caballus) (UniProt P81908); conditions: 125 to 500 nM
[5] = target: Acetylcholinesterase (Electrophorus electricus) (UniProt O42275); assay: Mixed-type inhibition of electric eel AChE using ATC as substrate at 25 to 100 nM preincubated for 15 mins followed by substrate addition by Lineweavere-Burk plot analysis
[6] = target: T1, Amyloid-beta precursor protein (Homo sapiens, UniProt P05067); assay: Potency index, ratio of curcumin IC50 to compound IC50 for self-mediated amyloid beta (1 to 42) (unknown origin) aggregation
Rattus norvegicus = species: Rattus norvegicus; assay: Cytotoxicity against rat PC12 cells assessed as reduction in cell viability at 1 to 5 uM after 2 hrs by MTT assay; assay type: toxicity; conditions: pc-12, 2 h
PC-12 [7] = assay: Protective effect against H2O2-induced cell death in rat PC12 cells at 1 to 5 uM preincubated for 2 hrs followed by H2O2 addition for 24 hrs by MTT assay; assay type: functional, cell-based
[8] = target: Cholinesterase (Equus caballus) (UniProt P81908); assay: Mixed-type inhibition of horse serum BChE using BTC as substrate at 12.5 to 100 nM preincubated for 15 mins followed by substrate addition by Lineweavere-Burk plot analysis
[9] = target: T1, Amyloid-beta precursor protein
Description: Inhibition of self-mediated amyloid beta (1 to 42) (unknown origin) aggregation after 48 hrs by thioflavin T fluorescence assay

Cholinesterase, sequence (P81908 whole entry): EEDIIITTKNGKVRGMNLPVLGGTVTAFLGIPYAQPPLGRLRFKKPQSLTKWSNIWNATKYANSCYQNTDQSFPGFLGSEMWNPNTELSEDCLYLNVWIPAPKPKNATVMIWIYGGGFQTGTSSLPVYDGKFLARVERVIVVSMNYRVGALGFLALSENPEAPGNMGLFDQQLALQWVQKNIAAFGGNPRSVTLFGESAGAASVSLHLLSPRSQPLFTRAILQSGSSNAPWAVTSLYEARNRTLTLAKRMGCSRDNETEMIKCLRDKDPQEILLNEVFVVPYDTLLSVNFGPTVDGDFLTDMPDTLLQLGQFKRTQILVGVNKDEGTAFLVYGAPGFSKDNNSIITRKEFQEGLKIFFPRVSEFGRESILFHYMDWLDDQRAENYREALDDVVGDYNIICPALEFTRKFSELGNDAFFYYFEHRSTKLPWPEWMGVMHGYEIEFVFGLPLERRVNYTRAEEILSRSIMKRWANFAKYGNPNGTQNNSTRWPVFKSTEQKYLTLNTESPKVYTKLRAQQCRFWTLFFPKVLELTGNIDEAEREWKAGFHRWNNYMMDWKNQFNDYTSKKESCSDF
Acetylcholinesterase, sequence (O42275 whole entry): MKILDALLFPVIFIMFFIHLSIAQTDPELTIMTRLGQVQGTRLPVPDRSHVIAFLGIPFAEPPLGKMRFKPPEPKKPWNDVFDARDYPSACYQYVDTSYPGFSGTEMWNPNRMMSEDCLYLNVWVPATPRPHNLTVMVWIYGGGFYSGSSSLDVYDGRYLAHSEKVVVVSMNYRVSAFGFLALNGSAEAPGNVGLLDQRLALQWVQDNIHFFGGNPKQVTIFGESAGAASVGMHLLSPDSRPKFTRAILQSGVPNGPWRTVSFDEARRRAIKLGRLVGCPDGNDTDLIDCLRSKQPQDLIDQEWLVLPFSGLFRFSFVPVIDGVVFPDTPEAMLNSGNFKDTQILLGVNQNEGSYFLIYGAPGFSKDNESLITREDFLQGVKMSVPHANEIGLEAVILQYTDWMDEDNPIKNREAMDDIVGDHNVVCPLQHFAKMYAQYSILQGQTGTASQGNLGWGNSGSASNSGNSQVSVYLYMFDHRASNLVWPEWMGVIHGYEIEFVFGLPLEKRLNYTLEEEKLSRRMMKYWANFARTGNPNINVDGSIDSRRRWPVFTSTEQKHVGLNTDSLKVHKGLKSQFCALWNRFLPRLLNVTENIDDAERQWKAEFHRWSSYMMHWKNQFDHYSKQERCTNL
Cholinesterase (Equus caballus), sequence (P81908 whole entry): as the sequence (P81908 whole entry) above
Acetylcholinesterase (Electrophorus electricus), sequence (O42275 24-633 limits assumed): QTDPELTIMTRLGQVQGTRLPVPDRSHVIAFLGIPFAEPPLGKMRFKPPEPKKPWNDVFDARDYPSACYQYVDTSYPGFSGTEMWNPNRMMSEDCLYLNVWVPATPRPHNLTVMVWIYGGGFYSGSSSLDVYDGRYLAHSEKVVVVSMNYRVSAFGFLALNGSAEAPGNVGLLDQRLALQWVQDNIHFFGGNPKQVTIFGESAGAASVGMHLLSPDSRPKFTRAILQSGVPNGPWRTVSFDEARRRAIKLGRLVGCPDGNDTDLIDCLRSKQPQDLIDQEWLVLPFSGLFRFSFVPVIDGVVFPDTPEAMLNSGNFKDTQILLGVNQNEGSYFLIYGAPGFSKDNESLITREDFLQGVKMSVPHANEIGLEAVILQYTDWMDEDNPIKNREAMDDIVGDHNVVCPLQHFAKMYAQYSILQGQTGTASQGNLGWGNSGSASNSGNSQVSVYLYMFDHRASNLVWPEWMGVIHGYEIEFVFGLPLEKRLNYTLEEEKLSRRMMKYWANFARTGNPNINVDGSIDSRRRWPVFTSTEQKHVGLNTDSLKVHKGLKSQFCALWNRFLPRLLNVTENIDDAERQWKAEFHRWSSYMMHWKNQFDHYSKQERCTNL
T1 sequence (P05067 whole entry): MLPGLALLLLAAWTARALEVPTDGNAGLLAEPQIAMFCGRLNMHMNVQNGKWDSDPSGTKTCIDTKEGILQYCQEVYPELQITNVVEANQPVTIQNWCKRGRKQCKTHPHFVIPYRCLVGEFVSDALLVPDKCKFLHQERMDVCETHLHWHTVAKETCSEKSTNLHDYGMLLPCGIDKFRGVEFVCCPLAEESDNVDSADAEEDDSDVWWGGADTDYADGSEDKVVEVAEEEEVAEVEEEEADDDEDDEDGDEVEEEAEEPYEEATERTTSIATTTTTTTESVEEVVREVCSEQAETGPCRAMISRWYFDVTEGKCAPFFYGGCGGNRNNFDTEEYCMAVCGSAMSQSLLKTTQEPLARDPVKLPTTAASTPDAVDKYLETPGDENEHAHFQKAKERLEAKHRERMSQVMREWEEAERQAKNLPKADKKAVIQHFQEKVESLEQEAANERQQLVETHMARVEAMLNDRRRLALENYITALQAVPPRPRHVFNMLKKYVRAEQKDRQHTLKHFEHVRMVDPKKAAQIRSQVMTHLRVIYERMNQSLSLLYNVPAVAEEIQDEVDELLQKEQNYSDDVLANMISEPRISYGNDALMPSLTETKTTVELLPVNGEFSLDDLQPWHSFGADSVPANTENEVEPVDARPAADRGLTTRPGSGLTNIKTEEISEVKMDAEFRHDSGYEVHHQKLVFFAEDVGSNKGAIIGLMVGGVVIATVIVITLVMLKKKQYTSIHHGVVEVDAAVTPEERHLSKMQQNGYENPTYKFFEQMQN

Row | SMILES | IC50 (Acetylcholinesterase) [nM] | IC50 (Cholinesterase) [nM] | also measured
1 | CN(C)c1ccc(-c2cc(=O)c3ccc(OCC(=O)NCCCCNc4c5c(nc6ccccc46)CCCC5)cc3o2)cc1 | 1460 | 335 | –
2 | CN(C)c1ccc(-c2cc(=O)c3ccc(OCC(=O)NCCCCN4CCCC4)cc3o2)cc1 | 4830 | 11600 | –
3 | CN(C)c1ccc(-c2cc(=O)c3ccc(OCC(=O)NCCCNc4c5c(nc6ccccc46)CCCC5)cc3o2)cc1 | 769 | 266 | –
4 | CN(C)c1ccc(-c2cc(=O)c3ccc(OCC(=O)NCCN4CCCC4)cc3o2)cc1 | 3130 | 27200 | –
5 | CN(C)c1ccc(-c2cc(=O)c3ccc(OCC(=O)NCCCCCCCCNc4c5c(nc6ccccc46)CCCC5)cc3o2)cc1 | 94.6 | 24.7 | –
6 | CN(C)CCCNC(=O)COc1ccc2c(=O)cc(-c3ccc(N(C)C)cc3)oc2c1 | 11900 | 13600 | –
7 | O=c1c(O)c(-c2ccc(O)c(O)c2)oc2cc(O)cc(O)c12 | – | – | Activity (PC-12 [1]): Active; Activity (PC-12 [2]): Active
8 | CN(C)c1ccc(-c2cc(=O)c3ccc(OCC(=O)NCCCCCCCCN4CCCC4)cc3o2)cc1 | 2300 | 238 | inhibition [3]: Active; inhibition [4]: Active
9 | CN(C)CCNC(=O)COc1ccc2c(=O)cc(-c3ccc(N(C)C)cc3)oc2c1 | 5240 | 10700 | –
10 | CN(C)c1ccc(-c2cc(=O)c3ccc(OCC(=O)NCCCCCCN4CCCC4)cc3o2)cc1 | 3200 | 1350 | –
11 | CN(C)c1ccc(-c2cc(=O)c3ccc(OCC(=O)NCCNc4c5c(nc6ccccc46)CCCC5)cc3o2)cc1 | 418 | 814 | –
12 | CN(C)c1ccc(-c2cc(=O)c3ccc(OCC(=O)NCCCN4CCCC4)cc3o2)cc1 | 7620 | 21600 | –
13 | CN(C)c1ccc(-c2cc(=O)c3ccc(OCC(=O)NCCCCCCNc4c5c(nc6ccccc46)CCCC5)cc3o2)cc1 | 59.6 | 46.2 | inhibition [5]: Active; Ratio IC50 [6]: 2; Activity (PC-12 [1]): Active; Activity (PC-12 [2]): Active; Activity (Rattus norvegicus): Non-Toxic; Activity (PC-12 [7]): Active; inhibition [8]: Active; IC50 [9]: 9470 nM
